Reference: patent publication US20050244486A1, “Topical methadone compositions and methods for using the same” (priority 2004, published 2005)
≈ marks a conversion by molar mass, not a printed value. Where “and” joins values, the source holds several entries; their conditions need not be identical. Equal values may be shown once. Read-outs that look alike come from different tables or passages of the source.

How the values were obtained:
[1] = Solubility of methadone in different solvents; format: physicochemical
Protocol: In this experiment, the solubility of methadone in a number of different solvents was evaluated. The solvents evaluated were mineral oil, N-methyl-2-pyrrolidone, diisopropyl adipate, DEET, PEG, Di (propylene glycol), dehydrated alcohol and water. […] The stability of the solutions was also evaluated.

[2] = Study 2: concentrations of methadone in rat plasma, topical administration versus intravenous injection; format: in vivo
Protocol: The test article was administered intravenously (IV) through the tail vein to animals in Group A. The injection was performed slowly. A gauze pad (1×1 cm) Saturated with 0.2 mL of the appropriate test article was applied to the clipped site on the back of the animals in Groups 2 and 3. The gauze pad was secured by occlusive tape. The animal was wrapped in gauze, which was held in place with Zonas porous tape.
Blood Collection: Blood (0.5 mL) was collected into sodium heparin tubes at the appropriate time points. The samples were centrifuged at approximately 2800 rpm at 2-8 degrees Celsius for approximately 15 minutes. Plasma was collected.

CCC(=O)C(CC(C)N(C)C)(c1ccccc1)c1ccccc1 (stereo not drawn) [Methadone, 6-dimethylamino-4,4-diphenyl-3-hepatone]
solubility at 48 h ([1]; organic solvent or mixture, Di(propylene glycol), 48 hour): 58.7 mg/mL (≈ 190 mM) | solubility at 3 h ([1]; organic solvent or mixture, N-methyl-2-pyrrolidone, 3 hour): 262 mg/mL (≈ 847 mM) | solubility at 6 h ([1]; organic solvent or mixture, N-methyl-2-pyrrolidone, 6 hour): 270 mg/mL (≈ 873 mM) | solubility at 24 h ([1]; organic solvent or mixture, N-methyl-2-pyrrolidone, 24 hour): 347 mg/mL (≈ 1120 mM) | solubility at 48 h ([1]; organic solvent or mixture, N-methyl-2-pyrrolidone, 48 hour): 342 mg/mL (≈ 1110 mM) | solubility at 3 h ([1]; organic solvent or mixture, PEG - 400, 3 hour): 39.7 mg/mL (≈ 128 mM) | solubility at 6 h ([1]; organic solvent or mixture, PEG - 400, 6 hour): 39.9 mg/mL (≈ 129 mM) | solubility at 24 h ([1]; organic solvent or mixture, PEG - 400, 24 hour): 38.8 mg/mL (≈ 125 mM) | solubility at 48 h ([1]; organic solvent or mixture, PEG - 400, 48 hour): 36.8 mg/mL (≈ 119 mM) | solubility at 24 h ([1]; organic solvent or mixture, diisopropyl adipate, 24 hour): 360 mg/mL (≈ 1160 mM) | solubility at 3 h ([1]; thermodynamic from solid, water, 3 hour): 0.217 mg/mL (≈ 0.701 mM) | solubility at 6 h ([1]; thermodynamic from solid, water, 6 hour): 0.228 mg/mL (≈ 0.737 mM) | solubility at 24 h ([1]; thermodynamic from solid, water, 24 hour): 0.224 mg/mL (≈ 0.724 mM) | solubility at 48 h ([1]; thermodynamic from solid, water, 48 hour): 0.225 mg/mL (≈ 0.727 mM) | Irritation of rat skin by topical application ([2]; Study 2, topical methadone solutions on rat skin): lack of irritation | Concentrations of Methadone in Rat Plasma Samples ([2]; Study 2 Group A: I.V. tail vein, 0.25 mL Test Article 1 (0.5 mg/mL Methadone-Saline Solution), 2 min, individual rats A1-A3): 72.0 ng/mL and 63.1 ng/mL | Concentrations of Methadone in Rat Plasma Samples ([2]; Study 2 Group A: I.V. tail vein, 0.25 mL Test Article 1 (0.5 mg/mL Methadone-Saline Solution), 20 min, individual rats A1-A3): 49.2 ng/mL and 59.5 ng/mL | Concentrations of Methadone in Rat Plasma Samples ([2]; Study 2 Group A: I.V. tail vein, 0.25 mL Test Article 1 (0.5 mg/mL Methadone-Saline Solution), 40 min, individual rats A1-A3): 33.0 ng/mL and 35.2 ng/mL | Concentrations of Methadone in Rat Plasma Samples ([2]; Study 2 Group A: I.V. tail vein, 0.25 mL Test Article 1 (0.5 mg/mL Methadone-Saline Solution), 60 min, individual rats A1-A3): 19.7 ng/mL and 24.0 ng/mL | Concentrations of Methadone in Rat Plasma Samples ([2]; Study 2 Group A: I.V. tail vein, 0.25 mL Test Article 1 (0.5 mg/mL Methadone-Saline Solution), 120 min, individual rats A1-A3): 19.5 ng/mL and 13.1 ng/mL and 9.26 ng/mL | Concentrations of Methadone in Rat Plasma Samples ([2]; Study 2 Group A: I.V. tail vein, 0.25 mL Test Article 1 (0.5 mg/mL Methadone-Saline Solution), 480 min, individual rats A1-A3): 1.83 ng/mL and 1.96 ng/mL | Concentrations of Methadone in Rat Plasma Samples ([2]; Study 2 Group A: I.V. tail vein, 0.25 mL Test Article 1 (0.5 mg/mL Methadone-Saline Solution), 1440 min, individual rats A1-A3): 2.31 ng/mL and 0.923 ng/mL | Concentrations of Methadone in Rat Plasma Samples ([2]; Study 2 Group A: I.V. tail vein, 0.25 mL Test Article 1 (0.5 mg/mL Methadone-Saline Solution), 2160 min, individual rats A1-A3): 0.905 ng/mL and 0.944 ng/mL | Concentrations of Methadone in Rat Plasma Samples ([2]; Study 2 Group B: topical dorsal flank, 1 × 1 cm gauze pad with 0.2 mL Test Article 2 (Methadone-Diisopropyl Adipate Solution 23.9%), 15 min, individual rats B1-B3): 1.49 ng/mL and 1.70 ng/mL | Concentrations of Methadone in Rat Plasma Samples ([2]; Study 2 Group B: topical dorsal flank, 1 × 1 cm gauze pad with 0.2 mL Test Article 2 (Methadone-Diisopropyl Adipate Solution 23.9%), 45 min, individual rats B1-B3): 5.66 ng/mL and 3.96 ng/mL and 17.0 ng/mL | Concentrations of Methadone in Rat Plasma Samples ([2]; Study 2 Group B: topical dorsal flank, 1 × 1 cm gauze pad with 0.2 mL Test Article 2 (Methadone-Diisopropyl Adipate Solution 23.9%), 90 min, individual rats B1-B3): 14.3 ng/mL and 27.1 ng/mL | Concentrations of Methadone in Rat Plasma Samples ([2]; Study 2 Group B: topical dorsal flank, 1 × 1 cm gauze pad with 0.2 mL Test Article 2 (Methadone-Diisopropyl Adipate Solution 23.9%), 120 min, individual rats B1-B3): 41.4 ng/mL and 19.1 ng/mL and 44.9 ng/mL | Concentrations of Methadone in Rat Plasma Samples ([2]; Study 2 Group B: topical dorsal flank, 1 × 1 cm gauze pad with 0.2 mL Test Article 2 (Methadone-Diisopropyl Adipate Solution 23.9%), 480 min, individual rats B1-B3): 159 ng/mL and 46.7 ng/mL and 300 ng/mL | Concentrations of Methadone in Rat Plasma Samples ([2]; Study 2 Group B: topical dorsal flank, 1 × 1 cm gauze pad with 0.2 mL Test Article 2 (Methadone-Diisopropyl Adipate Solution 23.9%), 1440 min, individual rats B1-B3): 117 ng/mL and 168 ng/mL | Concentrations of Methadone in Rat Plasma Samples ([2]; Study 2 Group B: topical dorsal flank, 1 × 1 cm gauze pad with 0.2 mL Test Article 2 (Methadone-Diisopropyl Adipate Solution 23.9%), 2160 min, individual rats B1-B3): 82.7 ng/mL and 126 ng/mL and 59.4 ng/mL | Concentrations of Methadone in Rat Plasma Samples ([2]; Study 2 Group B: topical dorsal flank, 1 × 1 cm gauze pad with 0.2 mL Test Article 2 (Methadone-Diisopropyl Adipate Solution 23.9%), 2880 min, individual rats B1-B3): 49.4 ng/mL and 173 ng/mL and 34.0 ng/mL | Concentrations of Methadone in Rat Plasma Samples ([2]; Study 2 Group C: topical dorsal flank, 1 × 1 cm gauze pad with 0.2 mL Test Article 3 (Methadone-DEET Solution 10%), 15 min, individual rats C1-C3): 0.84 ng/mL and 1.72 ng/mL and 1.04 ng/mL | Concentrations of Methadone in Rat Plasma Samples ([2]; Study 2 Group C: topical dorsal flank, 1 × 1 cm gauze pad with 0.2 mL Test Article 3 (Methadone-DEET Solution 10%), 45 min, individual rats C1-C3): 2.42 ng/mL and 1.71 ng/mL | Concentrations of Methadone in Rat Plasma Samples ([2]; Study 2 Group C: topical dorsal flank, 1 × 1 cm gauze pad with 0.2 mL Test Article 3 (Methadone-DEET Solution 10%), 90 min, individual rats C1-C3): 4.7 ng/mL and 2.89 ng/mL | Concentrations of Methadone in Rat Plasma Samples ([2]; Study 2 Group C: topical dorsal flank, 1 × 1 cm gauze pad with 0.2 mL Test Article 3 (Methadone-DEET Solution 10%), 120 min, individual rats C1-C3): 3.84 ng/mL and 7.73 ng/mL and 3.39 ng/mL | Concentrations of Methadone in Rat Plasma Samples ([2]; Study 2 Group C: topical dorsal flank, 1 × 1 cm gauze pad with 0.2 mL Test Article 3 (Methadone-DEET Solution 10%), 480 min, individual rats C1-C3): 18.0 ng/mL and 29.6 ng/mL and 14.3 ng/mL | Concentrations of Methadone in Rat Plasma Samples ([2]; Study 2 Group C: topical dorsal flank, 1 × 1 cm gauze pad with 0.2 mL Test Article 3 (Methadone-DEET Solution 10%), 1440 min, individual rats C1-C3): 20.0 ng/mL and 20.6 ng/mL | Concentrations of Methadone in Rat Plasma Samples ([2]; Study 2 Group C: topical dorsal flank, 1 × 1 cm gauze pad with 0.2 mL Test Article 3 (Methadone-DEET Solution 10%), 2160 min, individual rats C1-C3): 17.3 ng/mL and 35.1 ng/mL and 19.0 ng/mL | Concentrations of Methadone in Rat Plasma Samples ([2]; Study 2 Group C: topical dorsal flank, 1 × 1 cm gauze pad with 0.2 mL Test Article 3 (Methadone-DEET Solution 10%), 2880 min, individual rats C1-C3): 11.1 ng/mL and 23.7 ng/mL and 12.6 ng/mL | concentration at 45 min ([2]; rat, in vivo, 0.2 mL of 10% methadone solution, Study 2 Group C: topical dorsal flank, 1 × 1 cm gauze pad with 0.2 mL Test Article 3 (Methadone-DEET Solution 10%), 45 min, individual rats C1-C3, read-out: Concentrations of Methadone in Rat Plasma Samples): 2.08 ng/mL | concentration at 90 min ([2]; rat, in vivo, 0.2 mL of 10% methadone solution, Study 2 Group C: topical dorsal flank, 1 × 1 cm gauze pad with 0.2 mL Test Article 3 (Methadone-DEET Solution 10%), 90 min, individual rats C1-C3, read-out: Concentrations of Methadone in Rat Plasma Samples): 3.17 ng/mL | concentration at 1440 min ([2]; rat, in vivo, 0.2 mL of 10% methadone solution, Study 2 Group C: topical dorsal flank, 1 × 1 cm gauze pad with 0.2 mL Test Article 3 (Methadone-DEET Solution 10%), 1440 min, individual rats C1-C3, read-out: Concentrations of Methadone in Rat Plasma Samples): 27.8 ng/mL | concentration at 15 min ([2]; rat, in vivo, 0.2 mL of 23.9% methadone solution, Study 2 Group B: topical dorsal flank, 1 × 1 cm gauze pad with 0.2 mL Test Article 2 (Methadone-Diisopropyl Adipate Solution 23.9%), 15 min, individual rats B1-B3, read-out: Concentrations of Methadone in Rat Plasma Samples): 2.75 ng/mL | concentration at 90 min ([2]; rat, in vivo, 0.2 mL of 23.9% methadone solution, Study 2 Group B: topical dorsal flank, 1 × 1 cm gauze pad with 0.2 mL Test Article 2 (Methadone-Diisopropyl Adipate Solution 23.9%), 90 min, individual rats B1-B3, read-out: Concentrations of Methadone in Rat Plasma Samples): 24.8 ng/mL | concentration at 1440 min ([2]; rat, in vivo, 0.2 mL of 23.9% methadone solution, Study 2 Group B: topical dorsal flank, 1 × 1 cm gauze pad with 0.2 mL Test Article 2 (Methadone-Diisopropyl Adipate Solution 23.9%), 1440 min, individual rats B1-B3, read-out: Concentrations of Methadone in Rat Plasma Samples): 116 ng/mL | concentration at 2 min ([2]; rat, in vivo, iv, 0.125 mg, Study 2 Group A: I.V. tail vein, 0.25 mL Test Article 1 (0.5 mg/mL Methadone-Saline Solution), 2 min, individual rats A1-A3, read-out: Concentrations of Methadone in Rat Plasma Samples): 36.3 ng/mL | concentration at 20 min ([2]; rat, in vivo, iv, 0.125 mg, Study 2 Group A: I.V. tail vein, 0.25 mL Test Article 1 (0.5 mg/mL Methadone-Saline Solution), 20 min, individual rats A1-A3, read-out: Concentrations of Methadone in Rat Plasma Samples): 55.9 ng/mL | concentration at 40 min ([2]; rat, in vivo, iv, 0.125 mg, Study 2 Group A: I.V. tail vein, 0.25 mL Test Article 1 (0.5 mg/mL Methadone-Saline Solution), 40 min, individual rats A1-A3, read-out: Concentrations of Methadone in Rat Plasma Samples): 35.4 ng/mL | concentration at 60 min ([2]; rat, in vivo, iv, 0.125 mg, Study 2 Group A: I.V. tail vein, 0.25 mL Test Article 1 (0.5 mg/mL Methadone-Saline Solution), 60 min, individual rats A1-A3, read-out: Concentrations of Methadone in Rat Plasma Samples): 28.1 ng/mL | concentration at 480 min ([2]; rat, in vivo, iv, 0.125 mg, Study 2 Group A: I.V. tail vein, 0.25 mL Test Article 1 (0.5 mg/mL Methadone-Saline Solution), 480 min, individual rats A1-A3, read-out: Concentrations of Methadone in Rat Plasma Samples): 1.54 ng/mL | concentration at 2160 min ([2]; rat, in vivo, iv, 0.125 mg, Study 2 Group A: I.V. tail vein, 0.25 mL Test Article 1 (0.5 mg/mL Methadone-Saline Solution), 2160 min, individual rats A1-A3, read-out: Concentrations of Methadone in Rat Plasma Samples): 0.796 ng/mL
